Test results reported in patent US20260240842A1, “METHODS TO PREVENT THERAPY RESISTANCE IN MELANOMA VIA BLOCKING GENOMIC INSTABILITY” (THE REGENTS OF THE UNIVERSITY OF CALIFORNIA, priority 2022, published 2026).

Tested on: M229 and M245 cell lines
Test: WGS of short-term treated cell lines: treatment-specific ecDNA+CGR genomic spans
Type: cell-based, human
Settings: co-treatment with MAPKi for 10 to 11 days, FIG. 5H
Source text: FIGS. 5A-5H. Resistance-driver ecDNAs and HSRs dynamically track with resistance and DNA-PKi prevents size-expansion of ecDNAs and CGRs early on MAPKi treatment. FIGS. 5A to 5C, Metaphase DNA-FISH of paired parental and acquired resistant BRAF^V600MUT (5A and 5B) or NRAS^Q61MUT (5C) cell lines without or with drug withdrawal showing ecDNA- or HSR-amplicons harboring BRAF, RAF1 or NRAS. Left, representative images; right, quantifications per cell. Ruler, 15 μm. P values (Unpaired two-tailed Student's t-test): *, p<0.05; **, p<0.01; ***, p<0.001. […] FIG. 5G: Representative images (left) and quantification (right) of metaphase DNA-FISH showing HSR harboring BRAF in M249 cells treated with vehicle or BRAFi+MEKi, with or without NU7026 and/or ABT888 for 31 days. […] FIG. 5H: Average total genomic spans of treatment-specific ecDNAs+CGRs in M229 and M245 cell lines (background ecDNA+CGR spans detected in vehicle-treated cells were filtered). […]
Genomic DNA (gDNA) and total RNA were extracted from frozen tumor tissue preserved in RNALater or snap-frozen tumor tissue using the QIAGEN AllPrep DNA/RNA Mini Kit and the Ambion mirVana miRNA Isolation Kit. […] After library construction, indexed libraries were quantified for equal molar pooling and paired-end sequenced with a read length of 2×150 bp on the Illumina NovaSeq 6000 S4 platform. […]

O=c1cc(N2CCOCC2)oc2c1ccc1ccccc12 [NU7026]
MAPKi-elicited treatment-specific ecDNA+CGR genomic spans: blunted the expansion of ecDNA+CGR genomic spans in both cell lines
